Source: article PMC9413440, “An Iterative Approach Guides Discovery of the FabI Inhibitor Fabimycin, a Late-Stage Antibiotic Candidate with In Vivo Efficacy against Drug-Resistant Gram-Negative Infections” (ACS Central Science, 2022)

System: E. coli MG1655
Assay: Whole-cell accumulation assay (LC-MS/MS)
Format: cell-based, Escherichia coli
Method: II. Materials and Methods for Biological Experiments
S. aureus ATCC 29213 and E. coli MG1655 were obtained from the American Type Culture Collection (ATCC). E. coli BW25113 and E. coli JW5503 were obtained from the Keio Collection. AR-bank strains were obtained from the Centers for Disease Control and Prevention and FDA Antibiotic Resistance Isolate Bank. […]
The accumulation assay4 was performed in triplicate with each batch containing tetracycline as a positive control. E. coli MG1655 was used in these experiments. For each replicate, 2.5 mL of an overnight culture of E. coli was diluted into 250 mL of fresh Luria Bertani (LB) broth (Lennox) and grown at 37 °C with shaking to an optical density (OD600) of 0.55. The bacteria were pelleted at 3220 r.c.f. for 10 min at 4 °C and the supernatant was discarded. The pellets were resuspended in 40 mL of phosphate buffered saline (PBS) and pelleted as before, and the supernatant discarded. […] The number of colony-forming units (CFUs) was determined by a calibration curve. […] Supernatants were analyzed by LC-MS/MS.
Samples were analyzed with the […] LC-MS/MS system (AB Sciex) with a 1200 series HPLC system (Agilent Technologies) including a degasser, an autosampler, and a binary pump. […]
The source temperature was 450 °C. […] Multiple reaction monitoring was used for quantification. […] All compounds evaluated in biological assays were ≥95% pure.

For `Cc1c(CN(C)C(=O)/C=C/c2cnc3c(c2)CCCC(=O)N3)oc2ccccc12` [compound 10], the whole-cell accumulation was “reduced whole-cell accumulation”.
